Assay results: patent US6022526A, “Use of texaphyrins in detection of melanin and melanin metabolites diagnostic of melanotic melanoma” (Pharmacyclics, Inc., priority 1997, dated 2000)

Experiments:
[1] = Absorption of LuT2BET in 5% mannitol; format: physicochemical; conditions: 732 nm, 2 mM in 5% mannitol
Description: (§1) LuT2BET: The synthesis and chemical analysis of lutetium texaphyrin (LuT2BET, texaphyrin A2 of Tables A and B where M is lutetium) was provided in, for example, U.S. Pat. No. 5,622,946 and in PCT publication W095/10307. LuT2BET was dissolved in 5% mannitol at a 2 mM concentration. LuT2BET absorbs strongly in the far-red region of the electromagnetic spectrum, having a molar extinction coefficient of 23,000 M^-1 cm^-1 in this solution at 732 nm.

carcinoma SMT-F = test: Pharmacological data with radiolabeled [^14 C]-LuT2BET in SMT-F bearing mice; format: in vivo; conditions: 8.64 μmol/kg
Description: A dose of 8.64 μmol/kg LuT2BET produced drug uptake values of 5.1 μg/g, 4.7 μg/g, and 2.8 μg/g at 3 h, 5 h, and 24 h after injection, yielding tumor:muscle ratios of 8.45:1, 10:1 and 7:1, respectively.

[2] = tested on: B16F10 melanotic melanoma murine cells; test: Confocal laser scanning (fluorescent) microscopy of lutetium texaphyrin in melanoma cells; format: cell-based; conditions: 20 μg/ml LuT2BET, 1 to 24 h
Description: Fluorescent Microscopy of Texaphyrin in Melanoma Cells
The present example provides results from fluorescent microscopy studies using lutetium texaphyrin (LuT2BET) incorporated into melanoma cells.
B16F10 melanotic melanoma murine cells as described in Example 2 were incubated with 20 μg/ml LuT2BET for 1 to 24 h in Waymouth's medium supplemented with 15% fetal bovine serum. The adherent cells were washed thoroughly with PBS (3×) and examined using confocal laser scanning microscopy.
(§2) Melanoma Cells: B16F10 melanotic melanoma murine cells were obtained from the University of California, San Francisco Cell Culture Facility. These cells are highly pigmented and metastatic in vivo. Cells were grown in Iscove's Modified Dulbeccos' Medium (Gibco, Grand Island, N.Y.) supplemented with 10% fetal bovine serum (JRH Biosciences, Woodland, Calif.) and penicillin/streptomycin (Sigma, St. Louis, Mo.).

B16 melanoma = test: Biodistribution of LuT2BET in B16 melanoma-bearing mice (fluorescence of tissue extracts and plasma); format: in vivo, C57 mice
Description: The present example provides results from a study of the biodistribution of lutetium texaphyrin in melanoma-bearing mice. The biodistribution of LuT2BET was analyzed in C57 mice bearing B16 melanoma at 3 h, 5 h, and 24 h after an intravenous administration of 10 or 20 μmol/kg.
as §1, §2
Animals and Tumor Model: Inbred C57BL/6N female mice, (C57 mice) seven to eight weeks of age, were obtained from Simonsen Laboratories Inc. (Gilroy, Calif.). […] Tumor size, i.e., length (l), width (w), and height (h), was measured 3 times a week with a vernier caliper. Tumor volumes were calculated using the formula for a hemiellipsoid (Rockwell and Kallman, 1972): […]
Tissue Extraction Procedure: LuT2BET was administered via tail-vein injection at 10 or 20 μmol/kg. Tissues and plasma were analyzed at 3, 5 or 24 h post administration of the photosensitizer. […] Plasma samples (125 μL) were mixed with 10 mM TRITON X-100® and analyzed for texaphyrin content by fluorescence. […] Samples were then analyzed for lutetium texaphyrin content by fluorescence (excitation=450 nm, emission=700-800 nm). […] Texaphyrin accumulation is expressed as μg drug/g tissue (wet weight) or per mL plasma.
Statistical analysis: Values are expressed as mean±SD. […]

[3] = cited from earlier work

SMILES: CC(=O)[O-].CC(=O)[O-].CCc1c(CC)c2cc3nc(cnc4cc(OCCOCCOCCOC)c(OCCOCCOCCOC)cc4ncc4nc(cc1[n-]2)C(CCCO)=C4C)C(C)=C3CCCO.O.[Lu+3] [LuT2BET]
- molar extinction coefficient [1]: 23,000 M^-1 cm^-1
- tumor:muscle ratio (x:1) (carcinoma SMT-F; 3 h): 8.45
- drug uptake (tumor) (carcinoma SMT-F; 3 h after injection): 5.1 µg/g
- tumor:muscle ratio (x:1) (carcinoma SMT-F; 5 h): 10
- drug uptake (tumor) (carcinoma SMT-F; 5 h after injection): 4.7 µg/g
- tumor:muscle ratio (x:1) (carcinoma SMT-F; 24 h): 7
- drug uptake (tumor) (carcinoma SMT-F; 24 h after injection): 2.8 µg/g
- localization at dendritic processes ([2]; listed as Lutetium texaphyrin): collect at the dendritic processes
- localization in melanosomes ([2]; listed as Lutetium texaphyrin): highly concentrated in the melanosomes of melanoma cells
- localization at dendritic processes ([2]; listed as lutetium texaphyrin): collects at the dendritic processes
- localization in melanosomes ([2]; listed as lutetium texaphyrin): highly concentrated in the melanosomes of melanotic melanoma cells
- tumor:muscle ratio (x:1) (B16 melanoma; 10 μmol/kg i.v., 5 h): 15
- tumor localizing capacity (B16 melanoma; mouse, in vivo): good tumor localizing capacity
- uptake into B16 melanoma compared to carcinoma SMT-F (B16 melanoma; mouse, in vivo): increased uptake

SMILES: CN1CCc2ccc(O)cc2C(c2ccccc2)C1 (stereo not shown) [BZZ, 2,3,4,5-tetrahydro-3-methyl-5-phenyl-1H-3-benzazepin-7-ol]
- tumor specificity ([3]; compared with an ideal detecting agent): significantly less tumor-specific than an ideal detecting agent
- levels in normal brain (caudate) ([3]; in vivo): levels that may be toxic
